Reference: patent US8492521B2, “Oxidative stress responsive apoptosis inducing protein eIF5A” (priority 2008, dated 2013)

System: rat myocardial ischemia/reperfusion injury
Test: Rat myocardial ischemia/reperfusion injury, extent of myocardial infarction (TTC staining)
Type: in vivo
Details: 1 mg/kg everyday, peritoneal, five days to the day before; 30 min ischemia, 24 hours reperfusion; control group approx. 35.6%
Description: Rats (male, 250 to 280 g) were subjected to coronary artery ligation according to J. Pathol. 180, 305-310 (1996). Briefly, rats were anesthetized with sodium pentobarbital (40 mg Kg^−1, intraperitoneally), intubated, and ventilated with room air (tidal volume, 20 ml/Kg, […]) with a respirator (SN-480-7, Shinano Manufacturing Co., Ltd., Tokyo, Japan). After lateral thoracotomy and pericardiectomy, a 6-0 silk stitch was placed near the intramyocardial location of the left coronary artery beneath the left atrial appendage. Coronary artery occlusion was performed by pressing a short length of tube over the ends of the suture and clamping it firmly against the heart. Reperfusion was achieved by removing the clamp. The standard limb lead II electrocardiogram was monitored continuously. The ischemia and reperfusion of the regional myocardium were confirmed by following the changes of the ST segment level on the electrocardiogram and observing the change in the color of the myocardium.
eIF5A is deoxyhypusinated by deoxyhypusine synthase (DHS) in the cytoplasm (deoxyhypusine eIF5A) and then hypusinated by deoxyhypusine hydroxylase (DOHH) (hypusinated eIF5A). eIF5A is further secreted extracellularly by an oxidative stress stimulus as secreted eIF5A and acquire the apoptosis-inducing activity. […]

N=C(N)NCCCCCCCN [GC7, N1-guanyl-1,7-diaminoheptane]
extent of myocardial infarction: approx. 13.4%
